This note sets out measurements from article PMC7206119, “RIP1 inhibition blocks inflammatory diseases but not tumor growth or metastases” (Cell Death and Differentiation, 2019).

Targets include PIK3CA(E545A) (Homo sapiens, UniProt P42336, E545A); MAPKAPK5 (Homo sapiens, UniProt Q8IW41); NEK5 (Homo sapiens, UniProt Q6P3R8); AKT1 (Homo sapiens, UniProt P31749); MARK1 (Homo sapiens, UniProt Q9P0L2); TLK2 (Homo sapiens, UniProt Q86UE8); PIP5K1A (Homo sapiens, UniProt Q99755); EPHB1 (Homo sapiens, UniProt P54762); PRKD3 (Homo sapiens, UniProt O94806); MAK (Homo sapiens, UniProt P20794); PDPK1 (Homo sapiens, UniProt O15530).

Assay in all cases: biochemical
What all share (design): DiscoverX kinase panel, active-site competition binding (KINOMEscan type), percent of control at one concentration
Holding throughout (details): competition binding, percent of control

A further assay concerns the target T1, SGK (Homo sapiens, UniProt O00141).
T1 construct: gene SGK1

The target in another assay is T2, ERK3 (Homo sapiens, UniProt Q16659).
T2 construct: gene MAPK6

Assay [1] concerns the target T3, ABL1(F317L)-nonphosphorylated (Homo sapiens, UniProt P00519, F317L).
T3 construct: nonphosphorylated

For the next assay, the target named is T4, CDC2L5 (Homo sapiens, UniProt Q14004).
T4 construct: gene CDK13

A further assay deals with T5, PFTAIRE2 (Homo sapiens, UniProt Q96Q40).
T5 construct: gene CDK15

A further assay has as its target T6, PFCDPK1(P.falciparum) (Plasmodium falciparum, UniProt P62344).
T6 construct: gene CDPK1

Another assay addresses T7, MLCK (Homo sapiens, UniProt Q32MK0).
T7 construct: gene MYLK3

Another assay concerns the target T8, YSK1 (Homo sapiens, UniProt O00506).
T8 construct: gene STK25

A further assay addresses T9, ERK4 (Homo sapiens, UniProt P31152).
T9 construct: gene MAPK4

In assay [2] the target is T10, JAK1(JH1domain-catalytic) (Homo sapiens, UniProt P23458).
T10 construct: JH1domain-catalytic

Structures are written as SMILES.

T10 sequence (P23458 whole entry): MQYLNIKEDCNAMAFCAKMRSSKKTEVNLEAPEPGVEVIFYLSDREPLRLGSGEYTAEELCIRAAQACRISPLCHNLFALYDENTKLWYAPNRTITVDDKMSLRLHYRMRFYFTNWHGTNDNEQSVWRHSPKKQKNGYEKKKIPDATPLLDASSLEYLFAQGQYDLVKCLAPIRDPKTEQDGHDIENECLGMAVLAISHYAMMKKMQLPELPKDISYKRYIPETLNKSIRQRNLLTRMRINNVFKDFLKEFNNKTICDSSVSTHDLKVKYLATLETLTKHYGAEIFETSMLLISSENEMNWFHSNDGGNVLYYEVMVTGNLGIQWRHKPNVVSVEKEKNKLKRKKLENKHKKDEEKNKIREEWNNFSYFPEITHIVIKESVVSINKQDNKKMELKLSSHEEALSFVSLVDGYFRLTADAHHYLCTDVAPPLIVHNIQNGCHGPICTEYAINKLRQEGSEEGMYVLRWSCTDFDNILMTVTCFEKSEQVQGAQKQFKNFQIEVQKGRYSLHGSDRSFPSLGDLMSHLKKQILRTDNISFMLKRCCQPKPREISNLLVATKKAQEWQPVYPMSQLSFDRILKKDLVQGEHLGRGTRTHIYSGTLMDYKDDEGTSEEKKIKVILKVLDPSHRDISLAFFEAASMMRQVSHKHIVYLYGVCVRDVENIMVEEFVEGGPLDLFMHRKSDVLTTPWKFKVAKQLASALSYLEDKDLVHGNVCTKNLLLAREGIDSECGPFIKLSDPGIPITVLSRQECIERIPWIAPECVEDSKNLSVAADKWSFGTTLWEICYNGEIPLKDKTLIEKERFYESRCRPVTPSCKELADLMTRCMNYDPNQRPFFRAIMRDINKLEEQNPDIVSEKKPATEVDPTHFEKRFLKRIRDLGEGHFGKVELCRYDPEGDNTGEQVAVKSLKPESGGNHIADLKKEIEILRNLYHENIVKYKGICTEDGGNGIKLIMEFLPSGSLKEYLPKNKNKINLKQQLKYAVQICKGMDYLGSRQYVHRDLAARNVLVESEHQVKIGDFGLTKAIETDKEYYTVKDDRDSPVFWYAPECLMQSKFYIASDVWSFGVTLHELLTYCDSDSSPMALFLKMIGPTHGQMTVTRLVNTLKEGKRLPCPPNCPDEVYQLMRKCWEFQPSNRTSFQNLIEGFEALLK
Sequence of PIP5K1A (Q99755 whole entry): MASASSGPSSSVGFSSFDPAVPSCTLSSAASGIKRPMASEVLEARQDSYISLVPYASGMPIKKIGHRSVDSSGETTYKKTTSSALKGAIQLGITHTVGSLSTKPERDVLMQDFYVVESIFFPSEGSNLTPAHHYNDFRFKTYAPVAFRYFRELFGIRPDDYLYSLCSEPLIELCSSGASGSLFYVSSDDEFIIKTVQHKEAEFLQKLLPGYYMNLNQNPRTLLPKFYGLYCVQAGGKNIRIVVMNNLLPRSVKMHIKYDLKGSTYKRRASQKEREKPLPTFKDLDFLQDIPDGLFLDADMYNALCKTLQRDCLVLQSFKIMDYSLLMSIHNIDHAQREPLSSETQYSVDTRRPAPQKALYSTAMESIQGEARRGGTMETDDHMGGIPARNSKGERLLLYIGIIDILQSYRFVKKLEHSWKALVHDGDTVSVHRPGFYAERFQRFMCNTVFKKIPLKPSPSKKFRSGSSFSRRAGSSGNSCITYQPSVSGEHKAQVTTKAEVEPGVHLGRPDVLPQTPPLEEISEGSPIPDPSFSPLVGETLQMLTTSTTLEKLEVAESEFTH
Sequence of MARK1 (Q9P0L2 whole entry): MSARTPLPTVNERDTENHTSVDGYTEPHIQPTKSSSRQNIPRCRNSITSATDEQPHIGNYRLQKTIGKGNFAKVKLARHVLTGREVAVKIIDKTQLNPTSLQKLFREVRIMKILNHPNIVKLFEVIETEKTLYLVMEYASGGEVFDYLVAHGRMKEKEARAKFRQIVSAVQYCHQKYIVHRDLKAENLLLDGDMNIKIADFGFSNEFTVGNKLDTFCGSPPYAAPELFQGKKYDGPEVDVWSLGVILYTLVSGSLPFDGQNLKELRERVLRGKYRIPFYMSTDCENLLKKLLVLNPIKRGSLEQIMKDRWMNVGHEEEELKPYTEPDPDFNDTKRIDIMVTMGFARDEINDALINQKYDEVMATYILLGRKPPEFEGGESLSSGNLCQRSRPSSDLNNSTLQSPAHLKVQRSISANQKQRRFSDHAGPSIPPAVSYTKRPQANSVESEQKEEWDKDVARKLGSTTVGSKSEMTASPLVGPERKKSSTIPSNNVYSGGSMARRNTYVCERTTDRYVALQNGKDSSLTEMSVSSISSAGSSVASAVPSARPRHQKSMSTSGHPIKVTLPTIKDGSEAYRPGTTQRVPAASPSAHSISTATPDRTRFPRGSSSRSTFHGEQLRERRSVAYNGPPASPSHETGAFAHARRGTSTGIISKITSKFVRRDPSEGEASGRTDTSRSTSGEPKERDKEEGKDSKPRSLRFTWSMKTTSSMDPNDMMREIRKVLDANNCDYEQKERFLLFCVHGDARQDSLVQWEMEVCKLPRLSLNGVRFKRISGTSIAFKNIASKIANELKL
Sequence of PDPK1 (O15530 whole entry): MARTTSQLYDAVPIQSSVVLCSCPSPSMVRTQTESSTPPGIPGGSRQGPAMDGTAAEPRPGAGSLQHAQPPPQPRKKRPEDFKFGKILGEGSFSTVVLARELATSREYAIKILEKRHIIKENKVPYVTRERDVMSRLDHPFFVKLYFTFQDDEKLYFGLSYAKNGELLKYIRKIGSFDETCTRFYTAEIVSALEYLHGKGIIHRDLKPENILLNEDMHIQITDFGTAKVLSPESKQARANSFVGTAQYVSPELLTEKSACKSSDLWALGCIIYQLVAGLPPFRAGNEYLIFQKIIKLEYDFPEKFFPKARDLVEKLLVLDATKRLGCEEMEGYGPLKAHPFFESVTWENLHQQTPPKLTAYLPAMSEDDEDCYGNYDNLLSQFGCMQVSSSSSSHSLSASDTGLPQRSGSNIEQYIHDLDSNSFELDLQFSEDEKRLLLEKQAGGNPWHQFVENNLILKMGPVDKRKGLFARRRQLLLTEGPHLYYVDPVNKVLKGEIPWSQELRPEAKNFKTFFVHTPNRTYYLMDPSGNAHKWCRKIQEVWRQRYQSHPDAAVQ
T6 sequence (P62344 whole entry): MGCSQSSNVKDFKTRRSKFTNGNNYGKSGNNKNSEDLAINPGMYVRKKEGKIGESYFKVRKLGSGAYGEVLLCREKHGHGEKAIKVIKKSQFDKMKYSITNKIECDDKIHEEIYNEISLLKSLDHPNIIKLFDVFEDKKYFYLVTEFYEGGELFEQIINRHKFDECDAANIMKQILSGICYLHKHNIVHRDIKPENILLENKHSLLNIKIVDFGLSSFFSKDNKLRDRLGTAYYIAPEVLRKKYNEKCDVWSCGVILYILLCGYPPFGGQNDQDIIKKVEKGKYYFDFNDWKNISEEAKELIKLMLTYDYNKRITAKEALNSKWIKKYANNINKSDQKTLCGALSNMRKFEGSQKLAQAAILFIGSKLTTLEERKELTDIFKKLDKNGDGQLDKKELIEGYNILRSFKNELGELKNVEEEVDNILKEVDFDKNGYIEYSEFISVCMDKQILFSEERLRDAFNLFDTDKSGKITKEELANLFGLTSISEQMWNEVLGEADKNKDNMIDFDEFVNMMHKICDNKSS
T7 sequence (Q32MK0 whole entry): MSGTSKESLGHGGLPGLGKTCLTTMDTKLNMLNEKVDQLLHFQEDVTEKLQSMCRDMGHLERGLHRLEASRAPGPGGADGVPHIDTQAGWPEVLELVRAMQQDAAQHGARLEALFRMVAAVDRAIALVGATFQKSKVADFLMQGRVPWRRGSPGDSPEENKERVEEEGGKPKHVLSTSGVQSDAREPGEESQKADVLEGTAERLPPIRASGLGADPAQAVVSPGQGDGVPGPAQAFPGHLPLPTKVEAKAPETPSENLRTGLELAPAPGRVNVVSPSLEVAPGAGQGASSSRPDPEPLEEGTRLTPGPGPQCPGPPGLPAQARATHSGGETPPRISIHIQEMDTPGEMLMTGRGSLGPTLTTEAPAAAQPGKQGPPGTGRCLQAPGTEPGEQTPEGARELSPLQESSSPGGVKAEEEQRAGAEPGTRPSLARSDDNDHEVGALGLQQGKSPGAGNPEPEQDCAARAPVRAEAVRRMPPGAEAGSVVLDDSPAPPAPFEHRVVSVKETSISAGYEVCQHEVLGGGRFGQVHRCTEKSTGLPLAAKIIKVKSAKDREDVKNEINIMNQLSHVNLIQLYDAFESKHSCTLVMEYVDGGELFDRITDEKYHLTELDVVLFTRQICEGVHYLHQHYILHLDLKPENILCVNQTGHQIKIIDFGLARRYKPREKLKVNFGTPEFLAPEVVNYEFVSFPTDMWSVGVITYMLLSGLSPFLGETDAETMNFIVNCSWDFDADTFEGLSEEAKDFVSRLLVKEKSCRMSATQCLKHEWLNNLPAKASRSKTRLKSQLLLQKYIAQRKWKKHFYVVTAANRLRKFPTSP
Sequence of MAPKAPK5 (Q8IW41 whole entry): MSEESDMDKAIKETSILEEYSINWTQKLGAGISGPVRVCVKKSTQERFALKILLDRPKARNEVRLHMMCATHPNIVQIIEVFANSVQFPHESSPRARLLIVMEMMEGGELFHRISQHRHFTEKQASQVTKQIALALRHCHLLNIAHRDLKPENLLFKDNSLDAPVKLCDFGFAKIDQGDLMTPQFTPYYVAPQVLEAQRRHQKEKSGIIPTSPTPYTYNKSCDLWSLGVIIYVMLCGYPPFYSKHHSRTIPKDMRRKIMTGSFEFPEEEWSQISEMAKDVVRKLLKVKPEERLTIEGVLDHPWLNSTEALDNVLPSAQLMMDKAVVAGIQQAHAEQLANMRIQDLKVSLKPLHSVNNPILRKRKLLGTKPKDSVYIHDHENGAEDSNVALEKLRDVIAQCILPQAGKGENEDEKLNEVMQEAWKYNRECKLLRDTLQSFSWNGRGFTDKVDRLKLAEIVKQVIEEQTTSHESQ

`COc1cc2c(cn1)N(C)C(=O)[C@@H](NC(=O)c1nc3n(n1)[C@H](c1ccccc1)CC3)CC2` [GNE684, (S)-N-((S)-7-methoxy-1-methyl-2-oxo-2,3,4,5-tetrahydro-1H-pyrido[3,4-b]azepin-3-yl)-5-phenyl-6,7-dihydro-5H-pyrrolo[1,2-b][1,2,4]triazole-2-carboxamide]: the remaining binding at 10 µM at SGK was determined as 100%; at PIK3CA(E545A), 100%; on MAPKAPK5, 100%; on NEK5 it was 100%; on ERK3, 100%; in assay [1] it was 79%. Besides, the remaining binding at 10 µM on CDC2L5 turned out to be 100%; at AKT1, 74%; on PFTAIRE2 it was 100%; at PFCDPK1(P.falciparum), 100%; at MARK1, 69%; at TLK2, 100%. Besides, the remaining binding at 10 µM at PIP5K1A was determined as 99%; at EPHB1, 100%; on MLCK, 66%; on PRKD3, 100%; at YSK1, 90%; at MAK, 96%. For the same compound, the remaining binding at 10 µM on PDPK1 came out at 91%; at ERK4, 96%; in assay [2], 100%.
